This passage reports CLint scaled and half-life results from patent publication EP4748841A1, “BICYCLO[5,6] IMIDAZOLE PYRIMIDONE DERIVATIVE AND PREPARATION METHOD THEREFOR AND USE THEREOF” (Shujing Biopharma Co., Ltd, priority 2023, dated 2025).

Type in all cases: in vitro ADME
Data set [1] can be described thus: Liver microsome stability experiment (human). Particulars: for CLint scaled at 1 µM: human, liver microsomes, pH 7.4, Human liver microsomes. As to the method:
(§1) This experiment aimed to evaluate the phase I metabolic stability of the compounds of the present disclosure in liver microsomes of SD rats, beagle dogs, cynomolgus monkeys, and humans.
(§2) • (1) Buffer preparation: 73.21 g of dipotassium hydrogen phosphate trihydrate and 10.78 g of potassium dihydrogen phosphate were dissolved in 4000 mL of ultrapure water. The pH of the solution was adjusted to within 7.40 ± 0.10 using 10% phosphoric acid or 1 M potassium hydroxide, resulting in a final concentration of 100 mM. • (2) Solution preparation and dilution: Stock solutions of the test compounds at a concentration of 10 mM were prepared in dimethyl sulfoxide (DMSO) and stored at 4 °C, and they were diluted into 100 µM working solutions with pure acetonitrile when used. A stock solution of the control compound testosterone at a concentration of 10 mM was prepared in DMSO and stored at -20 °C, and it was diluted into a 400 µM working solution with pure acetonitrile when used. • (3) Termination solution preparation: The termination solution was an acetonitrile solution containing an internal standard (terfenadine). The prepared termination solution was stored in a refrigerator at 2-8 °C. • (4) Liver microsome solution preparation: Liver microsomes from various species (SD rat, beagle dog, cynomolgus monkey, and human) were diluted into 20× working solutions using 100 mM potassium phosphate buffer. The final concentration of the liver microsomes in the reaction system was 0.5 mg/mL. • (5) Reduced nicotinamide adenine dinucleotide phosphate (NADPH) regeneration system preparation: Appropriate amounts of nicotinamide adenine dinucleotide phosphate (NADP), glucose-6-phosphate (G6P), magnesium chloride (MgCl2), and glucose-6-phosphate dehydrogenase (G6PDH) were weighed to prepare stock solutions at concentrations of 65.33 mM, 330 mM, 300 mM, and 250 Units/mL, respectively. The four stock solutions described above were each added to an appropriate amount of buffer, and the mixture was mixed well by gently inverting up and down. The final concentrations of NADP, G6P, MgCl2, and G6PDH in the NADPH regeneration system were 2.65 mM, 10.2 mM, 6.12 mM, and 2.45 Units/mL, respectively. • (6) Incubation process: The incubation was completed in 96-well plates. Several incubation plates were prepared and named T0, T5, T10, T20, T40, T60, and NCF60, respectively. The first 6 plates corresponded to reaction time points of 0 min, 5 min, 10 min, 20 min, 40 min, and 60 min, respectively. The NCF60 plate was incubated for 60 min with potassium phosphate buffer replacing the NADPH regeneration system solution. Samples under all conditions were prepared in triplicate.
(§3) 2 µL of the test compound or control compound and 100 µL of microsome working solution (containing 1 mg/mL liver microsome protein) were added to each of the T0, T5, T10, T20, T40, T60, and NCF60 plates, and only the microsome working solution was added to the Blank 60 plate. The plates described above were then pre-incubated in a 37 °C water bath for about 10 min.
(§4) After the pre-incubation was completed, 98 µL of the NADPH regeneration system working solution was added to each sample well except for the NCF60 plate and the T0 plate to initiate the reaction, and 98 µL of potassium phosphate buffer was added to each well of the NCF60 plate. Therefore, for the sample wells containing the test sample or control substance working solution, the final concentrations of TC and testosterone in the reaction were 1 µM and 4 µM, respectively, the concentration of liver microsomes was 0.5 mg/mL, and the final concentrations of DMSO and acetonitrile in the reaction system were 0.01% (v/v) and 0.99% (v/v), respectively.
(§5) After incubation for an appropriate time (e.g., 5 min, 10 min, 20 min, 40 min, and 60 min), 600 µL of a termination solution (an acetonitrile solution containing 100 ng/mL […]) was added to each test compound sample well and control compound sample well to terminate the reaction. […]

A short description of data set [2]: Liver microsome stability experiment (cynomolgus monkey). As to conditions: pH 7.4, Cynomolgus monkey liver microsomes, 0.5 mg/mL; for CLint scaled at 1 µM: cynomolgus monkey, liver microsomes. On the procedure: as §1, §2, §3, §4, §5
For orientation: Liver microsomes are vesicles of endoplasmic reticulum, rich in cytochrome P450 enzymes.

A short description of data set [3]: Liver microsome stability experiment (beagle dog). Particulars: for CLint scaled at 1 µM: beagle, dog, liver microsomes, pH 7.4, Beagle dog liver microsomes. On the procedure:
as §1, §2, §3, §4, §5

Data set [4] in a line: Liver microsome stability experiment (SD rat). As to conditions: for CLint scaled at 1 µM: SD, rat, liver microsomes, pH 7.4, SD rat liver microsomes. As to the method:
as §1, §2, §3, §4, §5

The mark [5] stands for this setting: 0.5 mg/mL, 1 µM, read-out: CL(liver).
Setting [6] is: 0.5 mg/mL, 1 µM, read-out: CLint(liver).
The mark [7] stands for this setting: read-out: Clearance rate classification.

Some results are limits rather than exact numbers.

With `COCCN1CCC(N(Cc2ccc(-c3ccc(C(F)(F)F)cc3)cc2)C(=O)Cn2c(SCc3cccc(F)c3F)cc(=O)c3ccccc32)CC1` [Rilapladib], the CLint scaled at 1 µM is 15.4 mL/min/kg in data set [1] (setting [5]); 60.3 mL/min/kg in data set [1] (setting [6]); greater than 48.3 mL/min/kg in data set [1] (setting [7]); 39.8 mL/min/kg in data set [2] (read-out: CL(liver)); 461 mL/min/kg in data set [2] (read-out: CLint(liver)); 8.8 mL/min/kg in data set [3] (setting [5]). The CLint scaled at 1 µM in data set [3] (setting [6]) is 12.4 mL/min/kg; in data set [3] (setting [7]), no more than 13.2 mL/min/kg; in data set [4] (setting [5]), less than 10.8 mL/min/kg; in data set [4] (setting [6]), less than 13.4 mL/min/kg; in data set [4] (setting [7]), no more than 23.7 mL/min/kg. For the same molecule, the half-life (in general, the time needed for the level to fall by half in the phase considered) at 1 µM in data set [1] (pH 7.4, Human liver microsomes, 0.5 mg/mL, 1 µM) is 20.7 min; in data set [2], 4.06 min; in data set [3] (pH 7.4, Beagle dog liver microsomes, 0.5 mg/mL, 1 µM), 162 min; in data set [4] (pH 7.4, SD rat liver microsomes, 0.5 mg/mL, 1 µM) it was greater than 186 min.
